The data set addresses MALAT1. The settings on record: ASO, A431, 0.005 µM.

Several values for one entry are separate records, joined by “and”; a condition that tells them apart may be missing. Identical values can stand only once. After the bases stand the sugars from the 5' end (letter, count) and the backbone: PS all phosphorothioate, else s phosphorothioate and o phosphodiester by linkage. Methylation of C is not given here. k = constrained ethyl (cEt); d = 2'-deoxy (DNA)

Regarding AGCACCTGGGTCAGCT (sugars k3 d10 k3, PS), the target mRNA inhibition was -5%.
With CCCCAAAAGCTCTATA (sugars k3 d10 k3, PS), the target mRNA inhibition came to 8%.
AACCTACAACACCCGG (sugars k3 d10 k3, PS): the target mRNA inhibition is 34%.
TCTCTTGAGGGACAGT (sugars k3 d10 k3, PS): the target mRNA inhibition was -7%.
In the case of AAAGAACTAGTGGTTC (sugars k3 d10 k3, PS), the target mRNA inhibition was -4%.
As to CCTGATCTGGTCCATT (sugars k3 d10 k3, PS), the target mRNA inhibition worked out at 44%.
In the case of CAAGCATTCCTTCGGA (sugars k3 d10 k3, PS) it was 25%; in that of TTCTAACTTCTGCACC (sugars k3 d10 k3, PS), 33%.
CCCCAGTTGCCGCCAG (sugars k3 d10 k3, PS): the target mRNA inhibition was -18%.
The value for CCCTTCTAGCTTCAAG (sugars k3 d10 k3, PS) was 38%; that for GGCCGTTGGCTGCCAG (sugars k3 d10 k3, PS) was 21%; that for TTATACATCAAGGATG (sugars k3 d10 k3, PS) was 4%.
The value for TGGTTTTAATACCCTT (sugars k3 d10 k3, PS) was 11%.
Turning to TTAAGTTGGTAATTAC (sugars k3 d10 k3, PS), the target mRNA inhibition is -6%.
On to AGCCTTGCAGGGACGG (sugars k3 d10 k3, PS), for which the target mRNA inhibition is -21%.
On to ACGCCAACACAGTTTG (sugars k3 d10 k3, PS), for which the target mRNA inhibition stood at 48%.
On to ACTGAAGAGCATTGGA (sugars k3 d10 k3, PS), for which the target mRNA inhibition is 34%.
In the case of CCGCTTGAGATTTGGG (sugars k3 d10 k3, PS) it was 28%; in that of GAGTGAAGTGTACTAT (sugars k3 d10 k3, PS), 62% and 77%.
In the case of CTGTGGTGGTCTGATT (sugars k3 d10 k3, PS), the target mRNA inhibition is 33%.
Regarding CTTCGGTTTAATCTCT (sugars k3 d10 k3, PS), the target mRNA inhibition is 73% and 54%.
In the case of GGCCTTTTAAAGTAGA (sugars k3 d10 k3, PS) it was 28%; in that of AGTCAAAGCAAAGACG (sugars k3 d10 k3, PS), 35%.
In the case of GCCACTCAAATGCCTA (sugars k3 d10 k3, PS) it was 18%.
With AGATACCTGTCTGAGG (sugars k3 d10 k3, PS), the target mRNA inhibition was 12%.
With CAACAATCACTACTCC (sugars k3 d10 k3, PS), the target mRNA inhibition came out at 16%.
For the sequence GGTTAGGTATGAGCTT (sugars k3 d10 k3, PS), the target mRNA inhibition worked out at 8%.
In the case of AACTGTAAACCTGTGG (sugars k3 d10 k3, PS) it was -8%.
As to TGAAACCGATTATGGA (sugars k3 d10 k3, PS), the target mRNA inhibition was 3%.
In the case of CGTCCCCATATAAATC (sugars k3 d10 k3, PS) it was 1%.
For TGAGTATAAGCCTGAA (sugars k3 d10 k3, PS), the target mRNA inhibition was 25%.
With CTTATCCCTAACATGC (sugars k3 d10 k3, PS), the target mRNA inhibition is 41%.
Consider AGAGAAGAATCCCCCC (sugars k3 d10 k3, PS), for which the target mRNA inhibition came out at 28%.
In the case of CCTTCCGCCGCCTCTT (sugars k3 d10 k3, PS) it was 3%; in that of ATGAGTATAAGCCTGA (sugars k3 d10 k3, PS), 55%.
Regarding AATTTAGAGCTTCTCC (sugars k3 d10 k3, PS), the target mRNA inhibition turned out to be 21%.
On to GACCAAACTGCAGAGT (sugars k3 d10 k3, PS), for which the target mRNA inhibition was 3%.
The value for GATGTGATTTTTAACC (sugars k3 d10 k3, PS) was 52% and 56%; that for GCATAAAGCTGAAATC (sugars k3 d10 k3, PS) was 4%; that for TGAAAGAACTAGTGGT (sugars k3 d10 k3, PS) was 23%.
For the sequence TGCCATCTACTATTTC (sugars k3 d10 k3, PS), the target mRNA inhibition is 19%.
In the case of TCAACCTCCGTCATGT (sugars k3 d10 k3, PS) it was 32%.
Turning to AATTCGATCACCTTCC (sugars k3 d10 k3, PS), the target mRNA inhibition stood at 16%.
Take CCTCCTCCGTGTGGTT (sugars k3 d10 k3, PS): the target mRNA inhibition turned out to be 32%.
With GTGTAGCACCTGGGTC (sugars k3 d10 k3, PS), the target mRNA inhibition was 64% and 46%.
The value for GTGGCCTTTTAAAGTA (sugars k3 d10 k3, PS) was 15%.
For TCCATGGTTGTCCTAC (sugars k3 d10 k3, PS), the target mRNA inhibition was found to be 35%.
For TCCTGAAATCCCCTAG (sugars k3 d10 k3, PS), the target mRNA inhibition was -12%.
Take CTCAGTCCTAGCTTCA (sugars k3 d10 k3, PS): the target mRNA inhibition amounted to 42%.
As for AATCAGGTGAGGCTGA (sugars k3 d10 k3, PS), the target mRNA inhibition is -26%.
In the case of GGGAATACTCTTCCAA (sugars k3 d10 k3, PS) it was 14%; in that of GCCGTTGGCTGCCAGT (sugars k3 d10 k3, PS), -8%; in that of GGCGGACTTTCTCCCC (sugars k3 d10 k3, PS), -17%.
As to TTACCCCAACTAAACA (sugars k3 d10 k3, PS), the target mRNA inhibition is -4%.
In the case of ACTGCAAGGTCTCATA (sugars k3 d10 k3, PS), the target mRNA inhibition was -1%.
In the case of TCTGATTATCCTGATA (sugars k3 d10 k3, PS), the target mRNA inhibition was 11%.
Take CAAATTGCACTCGCTC (sugars k3 d10 k3, PS): the target mRNA inhibition amounted to 34%.
The value for AACTGGAAGCTCCTTC (sugars k3 d10 k3, PS) was 17%; that for ACCTTGGGCAGCCAGT (sugars k3 d10 k3, PS) was -4%.
Consider CTTCTGAACCGGAGCA (sugars k3 d10 k3, PS), for which the target mRNA inhibition is -27%.
As for TGGCAAAATGGCGGAC (sugars k3 d10 k3, PS), the target mRNA inhibition amounted to 19%.
Take GAAACCAGGAGTGCCA (sugars k3 d10 k3, PS): the target mRNA inhibition amounted to 4%.
CTTCATTACCCCAACT (sugars k3 d10 k3, PS): the target mRNA inhibition turned out to be 14%.
As for ACCTACAACACCCGGA (sugars k3 d10 k3, PS), the target mRNA inhibition turned out to be 25%.
The value for CTGATTTTAAGGTTGC (sugars k3 d10 k3, PS) was 80% and 86%; that for ACATATTTTGCCCCCA (sugars k3 d10 k3, PS) was 19%; that for ACCCGGAAATCGGCCT (sugars k3 d10 k3, PS) was -6%.
For the sequence GAGAAAGTGCCATGGT (sugars k3 d10 k3, PS), the target mRNA inhibition was 26%.
For the sequence AGGTTCTAGTTTTACT (sugars k3 d10 k3, PS), the target mRNA inhibition came to 16%.
In the case of AGCCTTTATCACTCAG (sugars k3 d10 k3, PS) it was 35%; in that of TCTGAGTGAAGTGTAC (sugars k3 d10 k3, PS), 34%; in that of GTCTCATACACTCACT (sugars k3 d10 k3, PS), -4%.
The value for CATTCCTTCGGATGCT (sugars k3 d10 k3, PS) was 38%; that for GCAATTCAAAATCCTG (sugars k3 d10 k3, PS) was 51%; that for TAAAGTAAATAGGCTA (sugars k3 d10 k3, PS) was 21%.
In the case of TCAAGTGGCCTTTTAA (sugars k3 d10 k3, PS) it was -38%; in that of GCTCTGTAGTCCTTTC (sugars k3 d10 k3, PS), 42%.
As to CGCAGACAAAGTTTCT (sugars k3 d10 k3, PS), the target mRNA inhibition turned out to be 57%.
As to CATTGGCACACAGCAC (sugars k3 d10 k3, PS), the target mRNA inhibition is 21%.
Take CGTTACCTTGAAACCG (sugars k3 d10 k3, PS): the target mRNA inhibition came to 36%.
Regarding TTGCCCTTCTATTGGT (sugars k3 d10 k3, PS), the target mRNA inhibition was 11%.
GATTGTAAGCATTTAA (sugars k3 d10 k3, PS): the target mRNA inhibition was 54% and 67%.
For GACAAGCAATTAACTT (sugars k3 d10 k3, PS), the target mRNA inhibition is 66% and 53%.
Consider CTGTGGTTTTAATACC (sugars k3 d10 k3, PS), for which the target mRNA inhibition was 51%.
Regarding TTGAATTACTTCCGTT (sugars k3 d10 k3, PS), the target mRNA inhibition is 54% and 35%.
Take TTACCTAAACCCACCC (sugars k3 d10 k3, PS): the target mRNA inhibition stood at 38%.
In the case of TAATGCTAGTCCTCAG (sugars k3 d10 k3, PS) it was 38%.
Regarding TGAGGCAAGTCCTCAT (sugars k3 d10 k3, PS), the target mRNA inhibition was 5%.
Take TCCCCCATTATATTAG (sugars k3 d10 k3, PS): the target mRNA inhibition is 14%.
With CAAGTTAAACTTATCT (sugars k3 d10 k3, PS), the target mRNA inhibition was 16%.
Regarding GTCAAGCTCCTGACAA (sugars k3 d10 k3, PS), the target mRNA inhibition came to 33%.
As to GAAACCTGGGCTCCCG (sugars k3 d10 k3, PS), the target mRNA inhibition worked out at 13%.
In the case of AGTCCAATGCAAAAAC (sugars k3 d10 k3, PS), the target mRNA inhibition turned out to be 23%.
As to AAACCCCCGGAACTTT (sugars k3 d10 k3, PS), the target mRNA inhibition was 5%.
Turning to GTTCGCAGACAAAGTT (sugars k3 d10 k3, PS), the target mRNA inhibition worked out at 36%.
As for CAAGATTGCCCCAACA (sugars k3 d10 k3, PS), the target mRNA inhibition was determined as 12%.
CCCGCACGGAAATTTT (sugars k3 d10 k3, PS): the target mRNA inhibition is 17%.
With GCAGCGGGATCAGAAC (sugars k3 d10 k3, PS), the target mRNA inhibition worked out at 34%.
As to GCCTGGAATTATTATA (sugars k3 d10 k3, PS), the target mRNA inhibition was determined as 31%.

These data come from the OligoGym collection.
